# Measurements published in US20200216906A1, “METHODS AND COMPOSITIONS RELATING TO THE DIAGNOSIS AND TREATMENT OF CANCER” (PRESIDENT AND FELLOWS OF HARVARD COLLEGE, priority 2015, published 2020).
# Where a name gives a salt, the structure may show the parent alone. Read-outs that look alike come from different tables or passages of the source.
# Tests used:
# [1] = test system: Panc02.13 cells expressing vector only (02.13-WT); assay: Kinetic cell growth assay, Panc02.13 cells expressing vector only; format: cell-based, human; conditions: Homo sapiens
# Description: Panc02.13 cells were used to express YAPS6A (or vector controls) under sparse and dense cultures. Expression was confirmed by confocal microscopy (data not shown). Suppression of the Hippo pathway by expression of non-phospho, active form of YAP (YAPS6A) sensitized pancreatic cancer cells to gemcitabine and 5-FU (FIGS. 6 and 7). Apoptosis was measured by immunobloting with cleaved caspases 3/7 or PARP. Blots were also stained with anti-β-actin for loading control. The effect of Hippo pathway suppression on gemcitabine and 5-FU senstitization was maintained in 3D spheroid culture (FIG. 8). The effects of eleven cytotoxic drugs on the growth of Panc02.13 cells expressing vector only or YAPS6A construct grown under low or high densities were determined (Table 1).
# (§1) The effect of gemcitabine on pancreatic cancer cell growth was studied using a kinetic cell growth assay. Pancreatic cancer cells were plated on 96-well plates (Essen ImageLock, Essen Instruments, MI, US) at varying densities (2-4×10^3 for low density or 15-20×10^3 for high density experiments). Small molecule inhibitors at different doses were added 24 hours after plating and cell confluence was monitored with Incucyte Live-Cell Imaging System and software (Essen Instruments). Confluence was observed every hour for 48-144h or until the control (DMSO only) samples reached 100% confluence.
# as §1, with “Kinetic Cell growth assay. The” for “The”, “(2-4X103” for “(2-4×10^3”, “15-20X103” for “15-20×10^3”, “Incucyte™” for “Incucyte”
# [2] = test system: Panc02.13 cells expressing the YAPS6A mutant; assay: 3D spheroid growth assay, Panc02.13 cells expressing YAPS6A; format: cell-based, human; conditions: YAP activity increased
# [3] = test system: cancer cell lines harboring Hippo pathway genetic alterations; assay: 3D spheroid growth assay, cell lines with Hippo pathway alterations; format: cell-based; conditions: cell lines from five diverse cancer types
# Source text: Genetic defects that inhibit the Hippo pathway can induce tumors in model organisms. Such mutations occur in a broad range of human carcinomas, including lung, mesothelioma, colorectal, ovarian and liver cancers (Harvey et al., 2013) (Table S3). Mutations in NF2 and LATS2 are found in ˜30% of mesotheliomas and mutations in STK11 are found in 18% of lung cancers (Table S3). Previous studies have shown that aberrations in LATS2 and NF2 inactivate the Hippo pathway and overcome crowding-mediated YAP inhibition (Murakami et al., 2011). Despite the oncogenic effect of Hippo pathway mutations, the above studies would predict that the same inactivating mutations in the Hippo pathway genes (NF2, LATS2, STK11) could have an important effect, which can be exploited in chemotherapy: they might be hypersensitive to gemcitabine even in highly crowded conditions and increase the effectiveness of treatment. […] Furthermore, previous studies have shown that mutations in STK11 (LKB1) in lung cancer cell lines confer sensitivity to gemcitabine while ectopic expression of STK11 causes resistance (Xia et al., 2014; Yang, 2014). STK11 has been identified as an upstream kinase that negatively regulates YAP activity (Mohseni et al., 2014). […] Genetic aberrations in the Hippo pathway can be predictive biomarkers for response to gemcitabine.
# [4] = test system: Panc02.13 cells; assay: Radiolabeled gemcitabine efflux; format: in vitro ADME, human; conditions: counts per μg protein; more in Hippo-ON
# Description: Panc02.13 cells expressing GFP or YapS6A plasmid were treated with radiolabeled gemcitabine (0.5 μM) for one hour. Cells were washed twice with PBS and incubated in fresh medium. Medium was collected over the time course of 24 hours and radioactivity was measured using scintillation counter.
# (§2) It was considered whether the Hippo pathway might affect the efflux of gemcitabine and/or its metabolites. To assess directly gemcitabine efflux in conditioned media of pancreatic cancer cells both radiolabeled gemcitabine and LC-MS/MS-based methods were used. Panc02.13 cells grown in highly crowded conditions (Hippo-ON) pumped out 2-3-fold more radiolabeled gemcitabine (counts per μg protein) compared with cells grown in less crowded conditions (Hippo-OFF) (FIG. 22A). Another pathway of inactivation and export is the enzymatic conversion of gemcitabine to a uracil derivative (2′,2′-difluorodeoxyuridine, dFdU) by deamination catalyzed by cytidine deaminase (CDA)(Veltkamp et al., 2008). The efflux of gemcitabine and its deaminated metabolite, dFdU was measured by LC-MS/MS (24) in Panc02.13 cells expressing YAPS6A or vector control after gemcitabine treatment (FIG. 22B).
# Measuring gemcitabine efflux. […] Medium was collected over the time course of 24 hours and radioactivity was measured using scintillation counter.
# [5] = test system: Panc02.13 cells expressing YAPS6A; assay: Gemcitabine and dFdU efflux by LC-MS/MS, Panc02.13 YAPS6A vs GFP; format: in vitro ADME, human; conditions: less efflux in YAPS6A (Hippo-OFF), p<0.05
# Source text: as §2
# [6] = test system: Miapaca2-GFP xenografts; assay: Mouse xenograft, Miapaca2-GFP; format: in vivo; conditions: i.p., alternate days for two weeks
# Description: (§3) To assess the gemcitabine response to Hippo pathway inactivation in tumors a mouse xenograft model of pancreatic carcinoma cells and patient-derived xenograft (PDX) models from a variety of solid tumors including human cancers from non-small cell lung, esophagus, breast, mesothelium, ovary, colon, head and neck, sarcoma, and cholangiocarcinoma were used (FIG. 30). In mouse xenograft studies, two human pancreatic cancer cell lines (Miapac2 and Panc02.13) expressing GFP or YAPS6A were injected into athymic mice. Both parental or GFP expressing cells grew rapidly, producing palpable tumors in 5-10 days. When the tumors were ˜200 mm^3 (as measured using a caliper), mice were randomized into treatment and control groups. The […] received i.p. saline injections on alternate days for two weeks, and the latter received gemcitabine (20 mg/kg in Miapaca2-YAPS6A and 50 mg/Kg in Panc02.13-YAPS6A cohorts).
# (§4) Tumorigenicity in Nude Mice. All in vivo experiments were performed using 6-week-old to 8-week-old athymic nude mice. Mice were maintained in laminar flow rooms with constant temperature and humidity. Miapaca2 or Panc02.13 cells were inoculated subcutaneously (s.c.) into each flank of the mice. […] Tumor volumes (V) were calculated using the formula: V=AB2/2 (A, axial diameter; B, rotational diameter). […]
# [7] = test system: Panc02.13-parental xenografts; assay: Mouse xenograft, Panc02.13-parental; format: in vivo; conditions: alternate days for two weeks
# Description: as §3, §4
structure (smiles),measurement,setting,value
"Nc1ccn([C@@H]2O[C@H](CO)[C@@H](O)C2(F)F)c(=O)n1 [Gemcitabine, Gemcitabine hydrochloride]",EC50,"[1]; high density, read-out: High density (EC50, nM) 02.13-WT",1100 nM
same,EC50,"[1]; low density, read-out: Low density (EC50, nM) 02.13-WT",1.6 nM
same,Efficacy in inhibiting cell growth when the Hippo pathway was inhibited,[2],increased efficacy in inhibiting cell growth
same,EC50,[3],< 1000 nM
same,"Radiolabeled gemcitabine pumped out, highly crowded vs less crowded",[4],2-3 fold
same,"Gemcitabine effluxed, YAPS6A vs GFP expressing cells",[5],10 fold
same,Growth of xenografts,[6],no affect
same,Growth of xenografts,[7],no affect
